Assay results reported in ChEMBL document CHEMBL4296183, “CO-ADD screening of NIH NCI Natural Product Set III” (2020).
≈ marks a conversion by molar mass, not a printed value. Structures can show the parent of a compound that is named as a salt.

How the values were obtained:
[1] = tested on: HEK293; experiment: cells; format: functional; conditions: Homo sapiens, ATCC CRL1573, HEK293; ASSAY_TEST Inhibition of Cell Viability; detection method Resazurin; Fluorescence (ex560/em590); MEDIA DMEM with 10% FBS; plate type 384well; TC; CORNING #3712; time 18 hr
[2] = tested on: Klebsiella pneumoniae; experiment: microbe, parasite or virus in culture; conditions: ATCC 700603, 18 h, ASSAY_TEST Inhibition of Bacterial Growth, detection method Absorption (OD600), MEDIA CAMHB, plate type 384well, NBS, CORNING #3640
Description: Antibacterial activity against Klebsiella pneumoniae MDR ATCC 70063 (CO-ADD:GN_003); MIC in CAMBH media using NBS plates, by OD(600)

[3] = tested on: Candida albicans; experiment: microbe, parasite or virus in culture; conditions: ATCC 90028, ASSAY_TEST Inhibition of Fungal Growth, detection method Absorption (OD530), plate type 384well, NBS, CORNING #3640
Description: Antifungal activity against Candida albicans ATCC 90028 (CO-ADD:FG_001); MIC in YNB media using NBS plates, by OD630

[4] = tested on: Pseudomonas aeruginosa; experiment: microbe, parasite or virus in culture; conditions: ATCC 27853, 18 h, ASSAY_TEST Inhibition of Bacterial Growth, detection method Absorption (OD600), MEDIA CAMHB, plate type 384well, NBS, CORNING #3640
Description: Antibacterial activity against Pseudomonas aeruginosa ATCC 27853 (CO-ADD:GN_042); MIC in CAMBH media using NBS plates, by OD(600)

[5] = tested on: Staphylococcus aureus; experiment: microbe, parasite or virus in culture; conditions: ATCC 43300, 18 h, ASSAY_TEST Inhibition of Bacterial Growth, detection method Absorption (OD600), MEDIA CAMHB, plate type 384well, NBS, CORNING #3640
Description: Antibacterial activity against Staphylococcus aureus MRSA ATCC 43300 (CO-ADD:GP_020); MIC in CAMBH media, using NBS plates, by OD(600)

[6] = tested on: Escherichia coli; experiment: microbe, parasite or virus in culture; conditions: ATCC 25922, 18 h, ASSAY_TEST Inhibition of Bacterial Growth, detection method Absorption (OD600), MEDIA CAMHB, plate type 384well, NBS, CORNING #3640
Description: Antibacterial activity against Escherichia coli ATCC 25922 (CO-ADD:GN_001); MIC in CAMBH media using NBS plates, by OD(600)

[7] = tested on: Cryptococcus neoformans
Description: Antifungal activity against Cryptococcus neoformans H99 ATCC 208821 (CO-ADD:FG_002); MIC in YNB media using NBS plates, by Resazurin OD(600-570)

[8] = tested on: Acinetobacter baumannii; experiment: microbe, parasite or virus in culture; conditions: ATCC 19606, 18 h, ASSAY_TEST Inhibition of Bacterial Growth, detection method Absorption (OD600), MEDIA CAMHB, plate type 384well, NBS, CORNING #3640
Description: Antibacterial activity against Acinetobacter baumannii ATCC 19606 (CO-ADD:GN_034); MIC in CAMBH media using NBS plates, by OD600

Compound	CC50 [1] [µM]	MIC [2] [µM]	MIC [3] [µM]	MIC [4] [µM]	MIC [5] [µM]	MIC [6] [µM]	MIC [7] [µM]	MIC [8] [µM]
N#Cc1cn(C2OC(CO)C(O)C2O)c2ncnc(N)c12 (centres undefined)	> 10	> 10	0.312 (≈ 0.091 µg/mL)	> 10	> 10	> 10	> 10	> 10
O=c1ccc2nc3ccc(O)cc3oc-2c1	> 10	> 10	> 10	> 10	> 10	> 10	> 10	> 10
COc1cccc2c1C(=O)c1c(O)c3c(c(O)c1C2=O)C[C@@](O)(C(C)=O)C[C@@H]3OC1CC(N)C(O)C(C)O1 (some centres undefined)	0.613	> 10	> 10	> 10	5 (≈ 2.64 µg/mL)	> 10	> 10	> 10
CC1Oc2cc3c(-c4c(O)cc(O)c5c(O)c6c(cc45)OC(C)C(C)C6=O)c(O)cc(O)c3c(O)c2C(=O)C1C (centres undefined)	5.78	> 10	> 10	> 10	5 (≈ 2.73 µg/mL)	> 10	> 10	> 10
COC1=C2C[C@@H](C)C[C@@H](OC)[C@@H](O)[C@H](C)/C=C(\C)[C@@H](OC(N)=O)[C@H](OC)/C=C\C=C(/C)C(=O)NC(=CC1=O)C2=O	> 10	> 10	> 10	> 10	> 10	> 10	> 10	> 10
CC[C@H](C)c1occ2c(O)c(C(=O)O)c(=O)cc-2c1C	> 10	> 10	> 10	> 10	> 10	> 10	> 10	> 10
C=C(NC(=O)C(=C)NC(=O)c1csc(C2=NC3c4csc(n4)C4NC(=O)c5csc(n5)C(C(C)(O)C(C)O)NC(=O)C5CSC(=N5)/C(=C/C)NC(=O)C(C(C)O)NC(=O)c5csc(n5)C3(CC2)NC(=O)C(C)NC(=O)C(=C)NC(=O)C(=C)NC(=O)C(C(C)C)NC2C=Cc3c(C(C)O)cc(nc3C2O)C(=O)OC4C)n1)C(N)=O (centres undefined)	> 10	> 10	> 10	> 10	≤ 0.0781	> 10	> 10	> 10
COc1cc(C)cc2c(-c3c(O)cc(O)c4c3C[C@H](C)N[C@H]4C)cc(-c3cc(-c4c(O)cc(O)c5c4C[C@H](C)N[C@H]5C)c4cc(C)cc(OC)c4c3O)c(O)c12	> 10	> 10	> 10	> 10	> 10	> 10	> 10	> 10
CC1COC2C3=C(C(=O)C=CC3=O)C3OC(=O)C4CC5CCC1C5C2C43 (centres undefined)	1.18	–	–	–	–	–	–	–
CC1/C=C/C=C/CC/C=C/C=C/C=C/C=C/C(OC2OC(C)C(O)C(N)C2O)CC2OC(CC(O)C(O)CCC(O)CC(O)CC(O)CC(=O)OC(C)C(C)C1O)CC(O)C2C(=O)O (centres undefined)	> 10	> 10	5 (≈ 4.55 µg/mL)	> 10	> 10	> 10	5 (≈ 4.55 µg/mL)	> 10
CC(=O)C(=O)NC1/C=C(C)\C=C/C(O)C/C=C(C)\C=C/C(O)CC2OC(=O)C1(C)C(=O)C2C (centres undefined)	> 10	> 10	> 10	> 10	10 (≈ 4.6 µg/mL)	> 10	> 10	> 10
CO[C@H](/C(C)=C/C=C/C(C)=C/c1coc(C)n1)[C@H](C)[C@H]1C[C@@H](O)[C@@]2(C)O[C@H]2/C=C/[C@@H](C)[C@@H]2C[C@@H](CC(=O)O2)C[C@H]2O[C@@H]2C(=O)O1	> 10	> 10	> 10	> 10	> 10	> 10	1.25 (≈ 0.782 µg/mL)	> 10
COc1cc2oc3cc(=O)cc4oc(-c5ccccc5)cc(c2c2c1CCC(c1ccccc1)O2)c43 (centres undefined)	> 10	> 10	> 10	> 10	> 10	> 10	> 10	> 10
COC1CC(CC2CCC(C)C(C(C)C(=O)O)O2)OC2(OC(C)(C3CCC(C)(C4OC(C5OC(O)(CO)C(C)CC5C)CC4C)O3)CC2C)C1C (centres undefined)	> 10	> 10	10 (≈ 7.25 µg/mL)	> 10	0.156 (≈ 0.113 µg/mL)	> 10	> 10	> 10
N#C[C@H](OC1OC(COC2OC(CO)C(O)C(O)C2O)C(O)C(O)C1O)c1ccccc1 (some centres undefined)	> 10	> 10	> 10	> 10	> 10	> 10	> 10	> 10
CSC1SCC2C(=O)N(C)C(C(C)C)C(=O)OCC(NC(=O)c3cnc4ccccc4n3)C(=O)NC(C)C(=O)N(C)C1C(=O)N(C)C(C(C)C)C(=O)OCC(NC(=O)c1cnc3ccccc3n1)C(=O)NC(C)C(=O)N2C (centres undefined)	> 10	> 10	> 10	1.25 (≈ 1.38 µg/mL)	≤ 0.0781	2.5 (≈ 2.75 µg/mL)	2.5 (≈ 2.75 µg/mL)	> 10
COC1/C=C/O[C@@]2(C)Oc3c(C)c(O)c4c(O)c(cc(O)c4c3C2=O)NC(=O)/C(C)=C\C=C\[C@H](C)C(O)[C@@H](C)[C@@H](O)[C@@H](C)[C@H](OC(C)=O)[C@@H]1C (some centres undefined)	> 10	> 10	> 10	> 10	≤ 0.0781	> 10	> 10	> 10
CC1OC(=O)C(C(C)C)NC(=O)C(C(C)C)OC(=O)C(C(C)C)NC(=O)C(C)OC(=O)C(C(C)C)NC(=O)C(C(C)C)OC(=O)C(C(C)C)NC(=O)C(C)OC(=O)C(C(C)C)NC(=O)C(C(C)C)OC(=O)C(C(C)C)NC1=O (centres undefined)	> 10	> 10	0.625 (≈ 0.695 µg/mL)	> 10	> 10	> 10	> 10	> 10
CCC(C(=O)C(C)C(O)C(C)CCc1ccc(C)c(O)c1C(=O)O)C1OC(CC)(C2CCC(O)(CC)C(C)O2)CC1C (centres undefined)	> 10	> 10	> 10	> 10	0.312 (≈ 0.185 µg/mL)	> 10	> 10	> 10
C[C@H](N)C(=O)N[C@@H]1[C@H]2C(=C(O)C[C@@H](O)[C@@H]2O)C(=O)O[C@]1(C)C(Cl)Cl [BACTOBOLIN]	0.396	> 10	> 10	> 10	1.25 (≈ 0.479 µg/mL)	5 (≈ 1.92 µg/mL)	> 10	> 10
CN(C)[C@@H]1C(O)=C(C(N)=O)C(=O)[C@@]2(O)C(O)=C3C(=O)c4c(O)ccc(Cl)c4[C@@](C)(O)[C@H]3C[C@@H]12 [CHLORTETRACYCLINE HYDROCHLORIDE]	> 10	> 10	> 10	2.5	1.25	5	> 10	> 10
Cc1c2ccncc2c(C)c2c1[nH]c1ccccc12 [ELLIPTECINE]	1.13	> 10	> 10	> 10	10 (≈ 2.46 µg/mL)	> 10	10 (≈ 2.46 µg/mL)	> 10
CC1=C2C(=CC(C)(C)[C@@H]2O)C(=O)[C@](C)(O)C12CC2 [ILLUDIN M]	0.114	> 10	> 10	> 10	> 10	> 10	> 10	> 10
CC1(C)CCC2=C(O1)c1ccccc1C(=O)C2=O [LAPACHONE]	> 10	> 10	> 10	> 10	> 10	> 10	> 10	> 10
COc1cc2cc(c1Cl)N(C)C(=O)C[C@H](OC(=O)[C@H](C)N(C)C(C)=O)[C@]1(C)O[C@H]1[C@H](C)[C@@H]1C[C@@](O)(NC(=O)O1)[C@H](OC)/C=C/C=C(\C)C2 [MAYTANSINE]	> 10	> 10	> 10	> 10	> 10	> 10	0.625 (≈ 0.433 µg/mL)	> 10
CC1OC(CC(=O)O)CC2=C1C(=O)c1c(O)cccc1C2=O (centres undefined) [NANAOMYCIN]	0.188	> 10	0.625 (≈ 0.189 µg/mL)	> 10	0.312 (≈ 0.0945 µg/mL)	> 10	1.25 (≈ 0.378 µg/mL)	> 10
C=C(C)[C@H]1Cc2c(ccc3c2O[C@@H]2COc4cc(OC)c(OC)cc4[C@@H]2C3=O)O1 [ROTENONE]	> 10	> 10	> 10	> 10	> 10	> 10	10 (≈ 3.94 µg/mL)	> 10
